Earlier results on 1 compound are cited in US20240350654A1, “NANOCARRIERS FOR TARGETED DELIVERY OF THERAPEUTICS” (Northwestern University, priority 2023, published 2024).

For this data set the following is noted: humans, approximation.

Regarding `CO[C@@H]1[C@H](N(C)C(=O)c2ccccc2)C[C@H]2O[C@]1(C)n1c3ccccc3c3c4c(c5c6ccccc6n2c5c31)C(=O)NC4` [midostaurin], the “total peak blood concentration of midostaurin and its active metabolites” value is 2.16 µg/mL.
